From patent US20030186947A1, “Compounds having activity as inhibitors of cytochrome P450RAI” (priority 2000, published 2003)
Read-outs that look alike come from different tables or passages of the source.

Test system: skin of hairless mice
Conditions: topical in acetone, once daily days 1 through 5, mean ±SD, range 0-21
Text: This irritation is a direct result of activation of the RAR nuclear receptors. Analysis of retinoid topical irritation is also a highly reproducible method of determining in vivo retinoid potency. The SKH1-hrBR or hairless mouse provides a convenient animal model of topical irritation, since retinoid-induced skin flaking and abrasion can be readily scored by eye (Standeven et al., “Specific antagonist of retinoid toxicity in mice.” Toxicol. Appl. Pharmacol. 138:169-175, (1996); Thacher, et al., “Receptor specificity of retinoid-induced hyperplasia. Effect of RXR-selective agonists and correlation with topical irritation”. J. Pharm. Exp. Ther., 282:528-534, (1997)).
Female hairless mice (Crl:SKH1-hrBR), 5-7 weeks old, were obtained from Charles River Breeding Labs (Wilmington, Mass.). Animals were about 6 weeks old at the start of the experiments. Food (Purina Rodent Chow 5001) and reverse osmosis water were provided ad libitum. Mice were housed individually throughout the dosing period. In some experiments, mice that fit within a defined weight range, e.g., 21-25 g, were selected from the available stock and then randomly assigned to the various treatment groups, using body weight as the randomization variable.
The compounds to be tested were dissolved in acetone for application to the backs of the mice.
Mice were treated topically on the back in a volume of 4.0 ml/kg (0.07-0.12 ml) adjusted daily so as to deliver a fixed dose of test compound per g body weight. Doses are disclosed as nmol/25 g.
The mice were weighed daily and the dorsal skin was graded daily using separate semi-quantitative scales to determine flaking and abrasion. These flaking and abrasion scores were combined with weight change (if any) to create a cutaneous toxicity score (Blackjack score).
A visual grading scale was used for characterizing topical irritation on a daily basis. The grading scale used is as follows:
The flaking and abrasion observations were combined with body weight observations to calculate a single, semiquantitative topical or cutaneous “toxicity score” as detailed below. The toxicity score (also known as “blackjack score” since the theoretical maximum is 21) takes into account the maximal severity, and the time of onset of skin flaking and abrasions and the extent of weight between the first and last days of the experiment. Below are listed the seven numerical components of the toxicity score and an explanation of how those values are combined to calculate the toxicity score.
Flaking onset score (2) and average severity score (3) are summed and divided by two. The quotient is added to the maximal severity score (1). Composite flaking scores are calculated for each individual animal in a group, averaged, and rounded to the nearest integer. Values can range from 0-9.
Abrasion onset score (5) and average severity score (6) are summed and divided by two. The quotient is added to the maximal severity score (4). Composite abrasion scores are calculated for each individual animal in a group, averaged and rounded to the nearest integer. Values can range from 0-8.
Composite flaking score, composite abrasion score, and systemic toxicity score are summed to give the “toxicity score.” Toxicity scores are calculated for each individual animal in a group, averaged, and rounded to the nearest integer. Values can range from 0-21 and are expressed in Table 1A below as the mean ±SD of the values for a group.

Structure (SMILES)	Cutaneous Toxicity Score (Blackjack Score) (100 nmole (nmol/25 g))	Cutaneous Toxicity Score (Blackjack Score) (1000 nmole (nmol/25 g))	Cutaneous Toxicity Score (Blackjack Score) (300 nmole (nmol/25 g))
CC1(C)CCC(=O)c2ccc(C#Cc3ccc(CC(=O)O)c(F)c3)cc21 [Compound 15, [2-Fluoro-4-(8.8-dimethyl-5-oxo-5,6,7,8-tetrahydro-naphthalene-2-yl-ethynyl)phenyl]-acetic acid]	1 ± 1	5 ± 2	
CCN(Cc1ccc(C#Cc2ccc(CC(=O)O)cc2)cc1C)C1CC1 [Compound 131]	1 ± 1	1 ± 1	0 ± 1
